From patent US5935977A, “Substituted vinyl pyridine derivative and drugs containing the same” (SS Pharmaceutical Co., Ltd., priority 1996, dated 1999)

Tests used:
PDE III = assay: PDE Inhibitory Activity Test, PDE III; type: biochemical; conditions: human platelet PDE III; substrate 1 μM; 20 min at 30° C.
PDE V = molecular target: T1, PDE V (Homo sapiens, UniProt O76074); assay: PDE Inhibitory Activity Test, PDE V; type: biochemical; conditions: human platelet PDE V; substrate 1 μM; 20 min at 30° C.
T1 construct: isolated from human tissue and purified in accordance with the method described in literature; from tissue; host or cells: human platelets
Protocol: A variety of PDE isozymes shown below were isolated from human tissue and purified in accordance with the method described in literature.
H. Hidaka, et al., Bioph. Bioch. Acta, (1976), 429, p485
C. D. Nicholson, et al., Trends Pharmacol. Sci., (1991), 12, p19.
The PDE activity was determined through use of a modified two-step assay method described by Hidaka et al. (Bioph. Bioch. Acta., (1976), 429, p485),
Briefly, [^3 H]cAMP and [^3 H]cGMP are hydrolyzed by their respective PDE isozymes to form [^3 H]5'-AMP and [^3 H]5'-GMP, respectively. Subsequently, [^3 H]5^1 -AMP and [^3 H]5^1 -GMP are transformed into [^3 H]adenosine and [^3 H]guanosine, respectively, due to the action of nucleotidases. Unreacted [^3 H]cAMP and [^3 H]cGMP are removed, causing them to bond to ion exchange resin, and the quantity of eluted [^3 H]adenosine or [^3 H]guanosine was counted in a liquid scintillation counter.
The diluted enzyme solution contains 50 mM Tris-HCl (pH 8.0), 5 mM MgCl2, and 50 μg of bovine serum albumin, wherein the concentrations represent final concentrations. The substrate concentration is 1 μM. The concentration of each test compound varies between 0.1 nM and 100 μM. Each test sample is incubated for 20 minutes at 30° C., and the PDE reaction is terminated by boiling for 2 minutes. The nucleotidase reaction was induced by adding snake venom nucleotidase to the above-described reaction mixture and incubating the resultant mixture for 20 minutes at 30° C.

PDE IV [1] = assay: PDE Inhibitory Activity Test, PDE IV; type: biochemical; conditions: PDE IV from human histocytic lymphoma (U-937); substrate 1 μM; 20 min at 30° C.
TNF-α = TNF-α Production Inhibition Test in LPS-treated U 937 cells; type: cell-based; conditions: U 937 cells differentiated with PMA; LPS 10 ng/ml, 6 hours; human TNF-α ELISA
Protocol: Human promonocytic leukemia cells (U 937 cells, 1×10^5 cells/400 μl) were inoculated on a 24-well culture plate. By use of an RPMI 1640 culture liquid (supplemented with 10% FCS) containing 50 nM PMA, the cells were incubated for 72 hours, to thereby induce differentiation into monocyte/macrophage (see Sarkiz Daniel-Issakani, Allem M. Spiegel and Berta Strulovici (1989), J. Biol. Chem. 264, p20240-20247). Subsequently, the culture supernatant was discarded, and an RPMI 1640 culture liquid (supplemented with 10% FCS) containing 10 ng/ml of LPS (lipopolysaccharide; E. coli, 0111:B4) was added. Each compound was added one hour before the LPS treatment, so as to achieve concentrations of 100 μM, 10 μM, 1 μM, and 0.1 μM. Six hours after addition of LPS, the quantity of produced TNF-α in the supernatant was measured by use of a human TNF-α ELISA kit (Amersham, code RPN 2758), For respective doses of each compound, % control was calculated, wherein the quantity of TNF-α produced when LPS treatment was performed and the compound was not added was considered 100%. Further, based on primary regression curves, there were calculated IC50 values in terms of TNF-α production inhibitory activity for respective compounds.

PDE = conditions: cited from earlier work
[2] = in vivo; cited from earlier work
PDE IV [3] = conditions: PDE IV vs other PDE isozymes; cited from earlier work

Row | Compound | IC50 (PDE III) [µM] | IC50 (PDE V) [µM] | IC50 (PDE IV [1]) [µM] | IC50 (TNF-α) [µM] | PDE inhibition selectivity (PDE) | safety range [2] | potency at PDE IV relative to other PDE isozymes (PDE IV [3]) [times]
1 | COc1cnc(/C(C#N)=C/c2c(Cl)cncc2Cl)cc1OC1Cc2ccccc2C1 [Example 19, (Z)-3-(3,5-Dichloro-4-pyridyl)-2-[4-(2-indanyloxy)-5-methoxy-2-pyridyl]propenenitrile] | > 100 | > 100 | 0.00065 | 2.9 | – | – | –
2 | COc1cnc(/C(C#N)=C/c2c(Cl)cncc2Cl)cc1OC1CCOC1 (centres unmarked) [Example 20, (Z)-3-(3,5-Dichloro-4-pyridyl)-2-[5-methoxy-4-(tetrahydro-3-furanyloxy)-2-pyridyl]propenenitrile] | 56 | > 100 | 0.011 | 7.1 | – | – | –
3 | COc1cnc(/C(C#N)=C/c2ccncc2)cc1OC1CCCC1 [Example 4, (Z)-2-(4-Cyclopentyloxy-5-methoxy-2-pyridyl)-3-(4-pyridyl)propenenitrile] | – | – | – | 7.6 | – | – | –
4 | COc1ccc(C2CNC(=O)C2)cc1OC1CCCC1 (centres unmarked) [Rolipram, reference compound] | > 100 | – | 5 | 100 | – | – | –
5 | CCC(CC)Oc1cc(/C(C#N)=C/c2c(Cl)cncc2Cl)ncc1OC [Example 17, (Z)-3-(3,5-Dichloro-4-pyridyl)-2-[4-(1-ethylpropyloxy)-5-methoxy-2-pyridyl]propenenitrile] | > 100 | > 100 | 0.036 | – | – | – | –
6 | COc1cnc(/C(C#N)=C/c2c(OC)cncc2OC)cc1OC1CCCC1 [Example 11, (Z)-2-(4-Cyclopentyloxy-5-methoxy-2-pyridyl)-3-(3,5-dimethoxy-4-pyridyl)propenenitrile] | – | – | – | 5.5 | – | – | –
7 | COc1cnc(/C(C#N)=C/c2c(Cl)cncc2Cl)cc1OC1CCCC1 [Example 1, (Z)-2-(4-cyclopentyloxy-5-methoxy-2-pyridyl)-3-(3,5-dichloro-4-pyridyl)propenenitrile] | 10 | > 100 | 0.0026 | 10.2 | – | – | –
8 | Cn1c(=O)c2[nH]cnc2n(C)c1=O [theophylline] | – | – | – | – | inhibits PDE non-selectively | rather narrow | –
9 | CCCCOc1cc(CC2CNC(=O)N2)ccc1OC (racemic) [Ro20-1724] | – | – | – | – | – | – | 100
10 | CCOc1cnc(/C(C#N)=C/c2c(Cl)cncc2Cl)cc1OC1CCCC1 [Example 18, (Z)-2-(4-Cyclopentyloxy-5-ethoxy-2-pyridyl)-3-(3,5-dichloro-4-pyridyl)propenenitrile] | 18 | 12 | 0.036 | – | – | – | –
11 | COc1cnc(/C(C#N)=C/c2c(Cl)cncc2Cl)cc1OCCCc1ccccc1 [Example 15, (Z)-3-(3,5-Dichloro-4-pyridyl)-2-[5-methoxy-4-(3-phenylpropyloxy)-2-pyridyl]propenenitrile] | 91 | 56 | 0.0048 | – | – | – | –
12 | CCCCOc1cc(/C(C#N)=C/c2c(Cl)cncc2Cl)ncc1OC [Example 16, (Z)-2-(4-Butyloxy-5-methoxy-2-pyridyl)-3-(3,5-dichloro-4-pyridyl)propenenitrile] | 15 | 31 | 0.015 | 13.1 | – | – | –
13 | COc1cnc(/C(C#N)=C/c2c(Cl)cncc2Cl)cc1O[C@@H]1C[C@H]2CC[C@@H]1C2 (relative stereo) [Example 21, (Z)-3-(3,5-Dichloro-4-pyridyl)-2-[5-methoxy-4-(exo-2-norbornyloxy)-2-pyridyl]propenenitrile] | – | – | – | 13.3 | – | – | –
14 | COc1cnc(/C(C#N)=C/c2c(Cl)cncc2Cl)cc1OCCc1ccccc1 [Example 14, (Z)-3-(3,5-Dichloro-4-pyridyl)-2-(5-methoxy-4-phenethyloxy-2-pyridyl)propenenitrile] | > 100 | 5.6 | 0.0059 | – | – | – | –
15 | COc1cnc(/C(C#N)=C/c2ccnc3ccccc23)cc1OC1CCCC1 [Example 10, (Z)-2-(4-Cyclopentyloxy-5-methoxy-2-pyridyl)-3-(4-quinolyl)propenenitrile] | – | – | – | 10 | – | – | –
